≈ marks a conversion by molar mass, not a printed value.
Tests used:
MIF [1] = molecular target: T1, MIF (Mus musculus, UniProt P34884); assay: MIF liver lysates enzymatic activity ex vivo (L-dopachrome tautomerase); settings: mice; IP 1 mg in corn oil every day for 3 days; livers 6 hours after last injection; FIG. 1
T1 construct: from tissue; host or cells: mouse liver (A7); liver, lung and brain of C57BL6 mice (A20)
Description: This experiment, using an ex-vivo approach and the tautomeric reaction of L-dopachrom, was designed to ascertain the level of inhibition of MIF following administration of the compounds of this invention via oral, IV, IP or any other route of administration. Mice were used in the example illustrated below, but other animals could be used as well. Groups of 3 mice were administered IP 1 mg of 4-IPP and ACT-002 resuspended in 100 μl of corn oil every day for 3 days. Mice were sacrificed 6 hours after the last injection and livers were harvested. ˜1 gram pieces of liver were lysed in PBS containing 1 mM NaVO4, 2 mM NaF and a protease inhibitor cocktail (Roche Biochemical, Indianapolis, Ind.) using dounce-homogenization on ice. 500 μg of liver lysates were added to a final volume of 700 μl PBS in plastic cuvettes. 4 mM L-3, 4-dihydroxyphenylalanine methyl ester and 8 mM sodium periodate (Sigma-Aldrich) were combined in a 3:2 ratio to form L-dopachrome methyl ester. 300 μL of L-dopachrome methyl ester was then immediately added to the cuvettes; the OD475 nm was measured 2 min and 4 min after addition of the L-dopachrome.

[2] = test system: primary human T lymphocytes; assay: Anti-CD3 induced T lymphocyte activation/proliferation (flow cytometry); format: cell-based; settings: 25 μM
Description: In order to assess the ability of MIF antagonists to disrupt autoimmune-associated T cell activation, primary human T lymphocytes were prepared using standard Ficoll-gradient preparations. 1×10^6 lymphocytes/ml were resuspended in RPMI/10% FCS and plated onto anti-CD3 antibodies previously immobilized onto tissue culture plates. Control, vehicle control (0.1% DMSO), 25 μM 4-IPP or 25 μM ACT-003 were added to cells and allowed to incubate for 48 hours. Cells were lifted, washed and stained with anti-CD4 or anti-CD8 antibodies and then analyzed by flow cytometry.
To validate the effects of MIF antagonists on T lymphocyte activation, experiments were set up exactly as described above and, 48 hours later, treated and untreated lymphocytes were stained with an anti-CD25 antibody. CD25 is also known as the high affinity IL-2 receptor—a very well characterized and frequently marker of T lymphocyte activation.
In order to investigate the relative kinetics of when 4-IPP and ACT-003 are acting in blocking T lymphocyte activation, we repeated the experiment described above but harvested lymphocytes only 16 hours after anti-CD3 plating. At this early time point during T lymphocyte activation, CD69 is found to be expressed and is usually considered to be an “early marker” of lymphocyte activation.
Finally, to confirm that proliferation of CD4+ and CD8+ T lymphocytes is blocked by 4-IPP-based MIF antagonists, we repeated the experiment as described above, added labeled-BrdU to cells, stained with either labeled anti-CD4 or anti-CD8 antibodies and then assessed relative CD4/CD8 and BrdU labeling in each treatment group.

MIF [3] = molecular target: T2, MIF (Homo sapiens, UniProt P14174); assay: MIF cell lysate enzymatic inhibition; format: biochemical; settings: cell lysates
T2 construct: the enzymatic activity of MIF present in cell lysates; endogenous in cells
T2 sequence (P14174 2-115 limits assumed): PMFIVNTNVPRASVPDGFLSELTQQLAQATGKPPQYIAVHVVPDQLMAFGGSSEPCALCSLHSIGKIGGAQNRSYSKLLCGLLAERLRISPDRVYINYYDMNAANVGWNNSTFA
Description: Normal or transformed cell lysates can be used to determine the concentration inhibiting the enzymatic activity of MIF present in cell lysates. Cells are cultured in the appropriate media to the required number of cells, collected, and lysed. Compounds to be characterized are solubilized in DMSO and serial dilutions are performed in order to obtain a range of concentrations including complete and no quantifiable inhibition.

[4] = test system: Chick Chorioallantoic Membrane (CAM); assay: CAM assay with matrigel plugs; format: in vivo
Description: 8 groups with 10 embryos in each group were used in the experiment described below. Fresh fertile eggs were incubated for 3 days in a standard egg incubator at 37° C. for 3 days. On Day 3, eggs were cracked under sterile conditions and embryos were placed into 20×100 mm plastic plates and cultivated at 37° C. in an embryo incubator with a water reservoir on the bottom shelf. Air was continuously bubbled into the water reservoir using a small pump so that the humidity in the incubator is kept constant. On Day 6, a sterile silicon “o” ring was placed on each CAM and test compound dissolved in 0.5% methylcellulose was placed into each “o” ring in a sterile hood. Paclitaxel was used as a positive control. Embryos were returned to the incubator after addition of test material. Control embryos received 10 μL of vehicle alone. On Day 8, embryos were removed from the incubator and kept at room temperature while blood vessel density were determined under each “o” ring using an image capturing system at a magnification of 160×. The blood vessel density was measured using an angiogenesis scoring system in that arithmetic numbers 0 to 5 (or exponential numbers 1 to 32) are used to indicate number of blood vessels present at the treatment sites on the CAM. Number 5 represents the highest density and 0 represents no angiogenesis. The percent of inhibition at each dosing site was calculated using the score recorded for that site divided by the mean score obtained from the appropriate control samples for each individual experiment. The percent of inhibition for each dose of a given compound was calculated by pooling all results obtained for that dose from 8-10 embryos.
Another experiment was performed using a protocol similar to the one described above but using matrigel plugs instead of o ring to deliver the test material to the CAM. Results are summarized in Table 9 below and show a statistically significant inhibition of angiogenesis at the high concentrations of test material.

[5] = Microsomal stability in human liver microsomes; format: in vitro ADME
Description: Stability in human liver microsomes was tested over […] at 37° C. using pooled mixed gender human liver microsomes. Liver microsomes were prepared at 1.0 mg/ml of microsomal protein in a 100 mM potassium phosphate pH 7.4 buffer with 1 mM NADPH. The media was incubated at 37° C. with the compound in solution in DMSO. The concentration of the compound was followed by LC/MS-MS as a function of time. Samples were assayed at t=0, 30, 60 and 120 minutes. Testosterone was used as a positive control. The same experiment was performed with mouse liver microsomes instead of human liver microsomes.

[6] = Solubility in varying solvents; format: physicochemical; settings: 21 °C, 20-22° C.
[7] = Caco-2 cell permeability and transport; format: in vitro ADME; design: Caco-2 Permeability Papp B-A / Caco-2 Permeability Papp A-B: unit not given here; settings: human, Caco-2, pH 7.4
Description: (§1) Cell permeability and transport mechanisms in Caco-2 and MDR1-MDCK monolayers experiments were performed in triplicate in the apical-to-basolateral and basolateral-to-apical direction using […]® wells containing either Caco-2 or MDR1-MDCK monolayers. A modified Hanks buffer pH 7.4 was used in both reservoir and receiver wells with the addition of 1% BSA in the receiver side. Confluent monolayers were used and their integrity was verified using reference compounds (Atenolol as a low permeability reference compound and Propanolol as a high permeability reference compound). A sample in the basolateral and apical sides was taken after 2 hours and the concentration measured by LC/MS-MS.

Caco-2 monolayers = assay: Caco-2 cell permeability and transport; format: in vitro ADME; design: Caco-2 Permeability Papp B-A / Caco-2 Permeability Papp A-B: unit not given here
Description: as §1

MIF [8] = molecular target: T1, MIF; assay: Oral bioavailability: ex vivo MIF enzymatic activity in liver, brain and lung after IP and PO dosing; design: species or system C57BL6 mice
Description: The compounds were administered orally (PO) and intraperitoneally (IP) to healthy animals. The inhibition of the MIF liver enzymatic activity determined ex vivo following IP and PO dosing is similar, indicating high oral bioavailability. Furthermore, brain and lung tissues were collected and processed to determine MIF enzymatic activity in these organs. […] Inhibition of MIF enzyme was determined […] following dosing of MIF-002 at 40 mg/kg once a day for three days, both IP and PO (normal C57BL6 mice, n=3). Tissues were collected at sacrifice and processed. Liver, lung, and brain tissues were collected, processed, and used for the determination of MIF enzyme activity. Values are expressed as a percentage calculated using DMSO as control (no inhibition).
Two additional compounds were tested, MIF-035 and MIF-041.

LOX-IMV1 tumor cell line = assay: Inhibition of cell migration (Oris Cell Migration Assay); format: cell-based; settings: 72 hrs, even at low concentrations (0.03 μM), FIG. 7
Description: The LOX-IMV1 tumor cell line was used to determine the inhibition of cell migration using the Oris Cell Migration Assay kit (Promega, Mich.). Briefly, adherent cells were seeded into each well of the kit according to kit instructions. Concentrations of cells in the migration zone were determined to calculate IC50 values. Prior to the migration assay, cell proliferation IC50s were determined to differentiate between inhibition of proliferation and migration. […] A slightly modified method was also used to determine the inhibition of invasion.

p53 = p53 up regulation, p53 luciferase assay; format: cell-based; settings: 10 μM; FIG. 5
Description: The up regulation of p53 was determined using a commercially available p53 luciferase assay kit. 1×10^5 cells/ml were plated in a 24 well plate and allowed to adhere overnight. MIF antagonists were added to the cells at the indicated concentrations for 16 hours and transiently co-transfected with 0.125 μg/well of p53-responsive luciferase promoter plasmid (Promega, Madison, Wis.) together with 0.0125 μg/well Renilla pRL-null plasmid (Promega) using Lipofectamine (Invitrogen) transfection reagent. After 24 hrs, Firefly and Renilla luciferase activities were measured by the Dual Luciferase Reporter Assay System (Promega, Madison, Wis.) on a TD-20/20 luminometer (Turner Designs).

Du 145 = assay: Inhibition of tumor cells proliferation (CellTiter Glo); format: cell-based; settings: Homo sapiens, 72 hours
Description: Inhibition of the proliferation of tumor cells was investigated in vitro in several tumor cell lines. Cells of the desired tumor cell line were plated at 2×10^5 cells/ml in 96 well plates. Twice the indicated concentrations of the compounds of the invention were added to cells the following day in an equal volume of media. 72 hours later, cells were lysed and subjected to ATP determination using the CellTiter Glo-Luminescent Cell Viability Assay kit (Promega, Madison, Wis.). Experiments were done in triplicate. Results for the inhibition of cells proliferation are reported as IC50 (the concentration leading to a 50% inhibition of proliferation of the cell population) and are listed in Table 6. FIGS. 3 and 4 show bar graphs comparing the IC50s of specific embodiments of compounds of the invention across multiple tumor cell lines.

[9] = Microsomal stability in human liver microsomes; format: in vitro ADME; settings: 15 min; 37° C.; 1 mM NADPH

Ic1cc(-c2ccccc2)ncn1 [4-IPP, 4-iodo-6-phenylpyrimidine, reference compound]
MIF liver enzyme inhibition (MIF [1]): significant in vivo inhibition of MIF
CD69 expression ([2]; 16 hours, FIGS. 17 and 18): only a marginal effect on CD69 expression
CD4 and CD8 T lymphocytes after anti-CD3 activation ([2]; 48 hours, FIGS. 13 and 14): significantly fewer CD4 and CD8 T lymphocytes
Anti-CD3-induced CD25 expression ([2]; 48 hours, FIGS. 15 and 16): almost completely blocked the anti-CD3-induced CD25 expression
BrdU labeling of CD8+ and CD4+ T lymphocytes (proliferation) ([2]; 48 hours, FIGS. 19 and 20): almost completely blocked BrdU labeling in both CD8+ and CD4+ T lymphocytes
IC50 (MIF [3]): > 2 µM

NC(=O)c1cccc(-c2cc(I)ncn2)c1 [ACT-MIF-035, 4-Iodo-6-(3-aminocarbonylphenyl)pyrimidine]
Blood Vessel Counts ([4]; 0.3 nM per CAM): 28.3 ± 1.7
Blood Vessel Counts ([4]; 3 nM per CAM): 27.3 ± 2.4
Blood Vessel Counts ([4]; 30 nM per CAM): 26.7 ± 1.9
Metabolic Stability in Human Microsomes % Remaining ([5]; both, human, microsomes, 0 h, pH 7.4): 100%
Metabolic Stability in Human Microsomes % Remaining ([5]; both, human, microsomes, 1 h, pH 7.4): 92%
solubility ([6]; aqueous with cosolvent or surfactant or cyclodextrin, Ethanol/Tween 80): 10000 µg/mL (≈ 30.8 mM)
solubility ([6]; oil or lipid, Corn oil): < 6000 µg/mL
solubility ([6]; organic solvent or mixture, Ethanol): 1400 µg/mL (≈ 4.31 mM)
solubility ([6]; organic solvent or mixture, PEG-300): 13300 µg/mL (≈ 40.9 mM)
solubility ([6]; organic solvent or mixture, Propane-diol): 2700 µg/mL (≈ 8.3 mM)
efflux ratio at 2 h [7]: 1.1
Caco-2 Permeability Class (Caco-2 monolayers): High
Caco-2 Permeability Papp A-B (Caco-2 monolayers; apical-to-basolateral, pH 7.4, 2 hours): 3.1
Caco-2 Permeability Papp B-A (Caco-2 monolayers; basolateral-to-apical, pH 7.4, 2 hours): 3.3
Oral bioavailability (MIF [8]; judged from ex vivo MIF inhibition after IP and PO dosing): orally bioavailable
Crossing of the blood brain barrier (MIF [8]; judged from ex vivo MIF inhibition in brain): crossed the blood brain barrier
Inhibition of cell migration (LOX-IMV1 tumor cell line): significant inhibition of migration
p53 regulation (p53): implicated in p53 regulation
IC50 (MIF [3]): 0.185 µM
IC50 (Du 145): 21.7 µM

C[C@]12CC[C@H]3[C@@H](CCC4=CC(=O)CC[C@@]43C)[C@@H]1CC[C@@H]2O [Testosterone, reference compound]
Metabolic Stability in Human Microsomes % Remaining ([5]; 0 min, 37° C., 1 mM NADPH): 100%
Metabolic Stability in Human Microsomes % Remaining [9]: 56%
